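A five-concentration, 48-hour dose response in 96-well plates underlies each endpoint, interpolated linearly between surrounding concentrations. GI50 is the concentration that inhibits growth by half. TGI: concentration producing complete growth inhibition.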
Tests used:
Assay in all cases: NCI tumour cell line growth inhibition, 48 h
[1] = system: 786-0 renal
[2] = system: A498 renal
[3] = system: A549 NSCLC
[4] = system: ACHN renal
[5] = system: BT-549 breast
[6] = system: CAKI-1 renal
[7] = system: CCRF-CEM leukemia
[8] = system: DU-145 prostate
[9] = system: EKVX NSCLC
[10] = system: HCT-116 colon
[11] = system: HCT-15 colon
[12] = system: HL-60(TB) leukemia
[13] = system: HOP-62 NSCLC
[14] = system: HOP-92 NSCLC
[15] = system: HS 578T breast
[16] = system: HT29 colon
[17] = system: IGROV1 ovarian
[18] = system: K-562 leukemia
[19] = system: KM12 colon
[20] = system: LOX IMVI melanoma
[21] = system: M14 melanoma
[22] = system: MALME-3M melanoma
[23] = system: MCF7 breast
[24] = system: MDA-MB-231 breast
[25] = system: MDA-MB-435
[26] = system: MOLT-4 leukemia
[27] = system: NCI-H226 lung
[28] = system: NCI-H23 lung
[29] = system: NCI-H460 lung
[30] = system: NCI-H522 lung
[31] = system: NCI/ADR-RES ovarian
[32] = system: OVCAR-3 ovarian
[33] = system: OVCAR-5 ovarian
[34] = system: OVCAR-8 ovarian
[35] = system: PC-3 prostate
[36] = system: RPMI-8226 leukemia
[37] = system: RXF 393 renal
[38] = system: SF-268 CNS
[39] = system: SF-295 CNS
[40] = system: SF-539 CNS
[41] = system: SK-MEL-2 melanoma
[42] = system: SK-MEL-28 melanoma
[43] = system: SK-MEL-5 melanoma
[44] = system: SK-OV-3 ovarian
[45] = system: SN12C renal
[46] = system: SNB-19 CNS
[47] = system: SNB-75 CNS
[48] = system: SR leukemia
[49] = system: TK-10 renal
[50] = system: U251 CNS
[51] = system: UACC-257 melanoma
[52] = system: UACC-62 melanoma
[53] = system: UO-31 renal

SMILES: Cc1sc2c(c1C)C(c1ccc(Cl)cc1)=N[C@@H](CC(=O)NCCCCCNC(=O)COc1ccc(C3CCC(=O)NC3=O)cc1)c1nnc(C)n1-2 (some centres undefined)
- GI50 [1]: 2080 nM
- TGI [1]: > 100000 nM
- GI50 [2]: 6270 nM
- TGI [2]: > 100000 nM
- GI50 [3]: 3960 nM
- TGI [3]: > 100000 nM
- GI50 [4]: 20700 nM
- TGI [4]: > 100000 nM
- GI50 [5]: 54.7 nM
- TGI [5]: 541 nM
- GI50 [6]: 845 nM
- TGI [6]: > 100000 nM
- GI50 [7]: 51.9 nM
- TGI [7]: > 100000 nM
- GI50 [8]: > 100000 nM
- TGI [8]: > 100000 nM
- GI50 [9]: 2500 nM
- TGI [9]: > 100000 nM
- GI50 [10]: 1690 nM
- TGI [10]: > 100000 nM
- GI50 [11]: 3770 nM
- TGI [11]: > 89500 nM
- TGI [12]: 99.5 nM
- GI50 [13]: 644 nM
- TGI [13]: > 100000 nM
- GI50 [14]: 61.9 nM
- GI50 [15]: 154 nM
- TGI [15]: > 100000 nM
- GI50 [16]: 950 nM
- TGI [16]: > 100000 nM
- GI50 [17]: 269 nM
- TGI [17]: > 100000 nM
- GI50 [18]: 565 nM
- TGI [18]: > 100000 nM
- GI50 [19]: 483 nM
- TGI [19]: > 100000 nM
- GI50 [20]: 1480 nM
- TGI [20]: > 42900 nM
- GI50 [21]: 1010 nM
- TGI [21]: > 100000 nM
- GI50 [22]: 788 nM
- TGI [22]: > 100000 nM
- GI50 [23]: 39.7 nM
- TGI [23]: > 100000 nM
- GI50 [24]: 90.8 nM
- TGI [24]: > 100000 nM
- GI50 [25]: 171 nM
- TGI [25]: > 100000 nM
- GI50 [26]: 113 nM
- TGI [26]: > 100000 nM
- GI50 [27]: 476 nM
- TGI [27]: > 100000 nM
- GI50 [28]: 13100 nM
- TGI [28]: > 100000 nM
- GI50 [29]: 47400 nM
- TGI [29]: > 100000 nM
- GI50 [30]: 4370 nM
- TGI [30]: > 100000 nM
- GI50 [31]: > 100000 nM
- TGI [31]: > 100000 nM
- GI50 [32]: 2300 nM
- TGI [32]: > 100000 nM
- GI50 [33]: 795 nM
- TGI [33]: > 100000 nM
- GI50 [34]: 298 nM
- TGI [34]: > 100000 nM
- GI50 [35]: 134 nM
- TGI [35]: > 100000 nM
- GI50 [36]: 38 nM
- TGI [36]: 1120 nM
- GI50 [37]: 2170 nM
- TGI [37]: > 100000 nM
- GI50 [38]: 629 nM
- TGI [38]: > 100000 nM
- GI50 [39]: 3110 nM
- TGI [39]: > 100000 nM
- GI50 [40]: 439 nM
- TGI [40]: > 100000 nM
- GI50 [41]: 371 nM
- TGI [41]: > 100000 nM
- GI50 [42]: 901 nM
- TGI [42]: > 100000 nM
- GI50 [43]: 345 nM
- TGI [43]: 3450 nM
- GI50 [44]: 3310 nM
- TGI [44]: > 100000 nM
- GI50 [45]: 293 nM
- TGI [45]: > 100000 nM
- GI50 [46]: 438 nM
- TGI [46]: > 100000 nM
- GI50 [47]: < 18.9 nM
- TGI [47]: 389 nM
- GI50 [48]: 64.5 nM
- TGI [48]: > 100000 nM
- GI50 [49]: 1700 nM
- TGI [49]: > 40900 nM
- GI50 [50]: 3090 nM
- TGI [50]: > 100000 nM
- GI50 [51]: > 26300 nM
- TGI [51]: > 100000 nM
- GI50 [52]: 429 nM
- TGI [52]: > 100000 nM
- GI50 [53]: 3200 nM
- TGI [53]: 53900 nM

Reference: PubChem BioAssay (NCI)
